Consider 57 compounds from patent US12466813B2, “PRC1 inhibitors and methods of treatment therewith” (The Regents of the University of Michigan, priority 2018, dated 2025).

For this experiment, the target named is T1, RING1B-BMI1 (Homo sapiens, UniProt Q99496).
T1 sequence (Q99496 1-336): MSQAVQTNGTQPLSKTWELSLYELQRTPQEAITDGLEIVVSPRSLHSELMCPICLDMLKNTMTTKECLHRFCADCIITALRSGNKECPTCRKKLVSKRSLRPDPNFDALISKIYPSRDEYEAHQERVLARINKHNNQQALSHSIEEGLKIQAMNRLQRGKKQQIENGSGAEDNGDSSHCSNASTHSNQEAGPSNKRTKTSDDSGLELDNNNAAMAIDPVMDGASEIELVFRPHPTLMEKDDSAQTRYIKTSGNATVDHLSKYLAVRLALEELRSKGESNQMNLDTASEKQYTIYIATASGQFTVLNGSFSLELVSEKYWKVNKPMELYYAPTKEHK
T1 sequence (P35226 1-326 partner): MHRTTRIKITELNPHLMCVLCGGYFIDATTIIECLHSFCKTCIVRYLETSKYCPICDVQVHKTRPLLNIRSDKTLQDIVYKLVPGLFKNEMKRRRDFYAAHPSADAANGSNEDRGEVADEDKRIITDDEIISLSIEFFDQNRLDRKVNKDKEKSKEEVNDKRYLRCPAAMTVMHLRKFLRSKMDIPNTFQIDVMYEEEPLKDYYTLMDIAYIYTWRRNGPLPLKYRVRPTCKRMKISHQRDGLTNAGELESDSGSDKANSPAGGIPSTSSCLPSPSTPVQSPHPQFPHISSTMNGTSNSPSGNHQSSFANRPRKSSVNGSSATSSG
The experiment in a line: KD classes of Table A (direct binding to Ring1B-Bmi1). The settings on record: class given in Table A. The protocol: Experiments were conducted during development of embodiments herein to develop small molecule inhibitors of PRC1 by targeting the Ring1B-BMI1 E3 ligase. These compounds bind directly to Ring1B-Bmi1 with low-micromolar affinity and inhibit PRC1 in vitro and in cells. […] Experiments were conducted during development of embodiments herein to test COMPOUND 1 in leukemia stem cell models represented by TEX cells (Ref. 22; herein incorporated by reference in its entirety) and M9-ENL1 cells (Ref. 23; herein incorporated by reference in its entirety). […] In some embodiments, COMPOUND 1 and COMPOUND 1 analogs are find use as agents in targeting leukemia and other cancer stem cells.
The compounds listed in Table A have been synthesized and/or tested for activity in inhibiting activity of PRC1 complex, and are within the scope herein.

pKd: −log10 of the molar value. Bounds are passed on as bounds.

By pKd is commonly meant the negative decadic logarithm of the Kd, by convention in mol/L. A higher pKd goes with a small Kd. On to `COc1ccc(-c2c(C(=O)O)[nH]c(-c3cc(F)cc4[nH]ccc34)c2C(C)C)c(F)c1` [compound 58], for which the negative-log Kd (pKd) was greater than 4.70.

Turning to `CC(C)c1c(-c2cccc3[nH]ccc23)[nH]c(C(=O)O)c1-c1cc([N+](=O)[O-])c(O)cc1Cl` [compound 4], the pKd is greater than 4.70.

For `CC(C)c1c(-c2cc(F)cc3[nH]ccc23)[nH]c(C(=O)O)c1-c1cccc2[nH]c(CS(C)(=O)=O)cc12` [compound 230], the negative logarithm of the Kd (pKd) is greater than 4.70.

For the compound `CC(C)c1c(-c2cccc3[nH]ccc23)c(C(=O)O)n2c1-c1cc(F)cc3ccn(c13)C(=O)C2` [compound 274], the negative-log Kd (pKd) was greater than 4.70.

For `CC(c1c(-c2cccc3[nH]ccc23)[nH]c(C(=O)O)c1-c1cccc2[nH]ccc12)C(F)F` (stereo not drawn) [compound 30, 4-(1,1-Difluoropropan-2-yl)-3,5-di(1H-indol-4-yl)-1H-pyrrole-2-carboxylic acid], the pKd was greater than 4.70.

Compound `CCc1ccc2[nH]ccc2c1-c1c(C(=O)O)[nH]c(-c2cc(F)cc3[nH]ccc23)c1C(C)C` [compound 242] had a negative-log Kd (pKd) greater than 4.70.

With `CC(C)c1c(-c2cc(F)cc3[nH]ccc23)[nH]c(C(=O)O)c1-c1ccc(Oc2ccncc2)cc1` [compound 63], the pKd was greater than 4.70.

Regarding `O=C(O)c1[nH]c(-c2cccc3[nH]ccc23)c2c1CCCC2` [compound 115], the pKd was less than 4.00.

`CC(C)c1c(-c2cc(F)cc3[nH]ccc23)[nH]c(C(=O)O)c1-c1cccc2[nH]c(C(=O)Nc3nccs3)cc12` [compound 261]: the negative-log Kd (pKd) was greater than 4.70.

Take `CC(C)c1c(-c2cc(F)cc3[nH]ccc23)[nH]c(C(=O)O)c1-c1ccc2c(c1)OCCO2` [compound 61]: the negative logarithm of the Kd (pKd) is greater than 4.70.

`CC(C)c1c(-c2cc(F)cc3[nH]ccc23)[nH]c(C(=O)O)c1-c1cccc2ncccc12` [compound 268] had a pKd greater than 4.70.

For `CCc1c(-c2cccc3[nH]ccc23)[nH]c(C(=O)O)c1-c1cccc(Oc2ccccc2)c1` [compound 97], the negative logarithm of the Kd (pKd) is 4.00 to 4.30.

On to `CC(C)c1c(-c2cc(F)cc3[nH]ccc23)[nH]c(C(=O)O)c1-c1cccc2[nH]cc(CCO)c12` [compound 187], for which the pKd was greater than 4.70.

Consider `CC(C)c1c(-c2cc(F)cc3[nH]ccc23)[nH]c(C(=O)O)c1-c1cc(Cl)cc2[nH]ccc12` [compound 41], for which the pKd was greater than 4.70.

`CC(C)c1c(-c2cccc3[nH]c(C(=O)O)cc23)[nH]c(C(=O)O)c1-c1c(Cl)ccc2[nH]ccc12` [compound 49] had a pKd greater than 4.70.

Compound `CC(C)c1c(-c2cc(F)cc3[nH]ccc23)[nH]c(C(=O)O)c1-c1cccc2c1ccn2CS(C)(=O)=O` [compound 264] showed a pKd greater than 4.70.

In turn, `Cn1c(C(=O)O)ccc1-c1cccc2[nH]ccc12` [compound 123] showed a negative-log Kd (pKd) of less than 4.00.

On to `CC(C)c1c(-c2cc(F)cc3[nH]ccc23)[nH]c(C(=O)O)c1-c1cccc2[nH]c(CO)cc12` [compound 189], for which the pKd is greater than 4.70.

For `CCc1c(-c2cccc3[nH]ccc23)[nH]c(C(=O)O)c1-c1ccc(C)cc1` [compound 100], the pKd is 4.00 to 4.30.

Compound `COc1ccc(-c2ccc(C(=O)O)[nH]2)cc1` [compound 157] gave a pKd of less than 4.00.

In turn, `CC(C)c1c(-c2cc(F)cc3[nH]ccc23)[nH]c(C(=O)O)c1-c1cc(Oc2nccs2)cc2[nH]ccc12` [compound 201] gave a negative logarithm of the Kd (pKd) greater than 4.70.

`CC(C)c1c(-c2cc(F)cc3[nH]ccc23)[nH]c(C(=O)O)c1-c1cccc2[nH]c(C(=O)Nc3ccccc3)cc12` [compound 260] had a negative-log Kd (pKd) greater than 4.70.

The compound `CCc1c(-c2cccc3[nH]ccc23)[nH]c(C(=O)O)c1-c1ccccc1` [compound 89] had a pKd of 4.30 to 4.70.

For the compound `Cc1cnc2[nH]ccc2c1-c1c(C(=O)O)[nH]c(-c2cc(F)cc3[nH]ccc23)c1C(C)C` [compound 209], the pKd was greater than 4.70.

In turn, `CC(C)c1c(-c2cc(F)cc3[nH]ccc23)[nH]c(C(=O)O)c1-c1c2cc[nH]c2cc2[nH]ccc12` [compound 269] had a pKd greater than 4.70.

Regarding `COc1cc(Cl)c(-c2c(C(=O)O)[nH]c(-c3cccc4[nH]ccc34)c2C(C)C)cc1[N+](=O)[O-]` [compound 3], the pKd is greater than 4.70.

With `Cc1cc(-c2c(C(=O)O)[nH]c(-c3cc(F)cc4[nH]ccc34)c2C(C)C)c2cc[nH]c2c1` [compound 51], the pKd was greater than 4.70.

Take `CC(C)c1c(-c2cc(F)cc3[nH]ccc23)[nH]c(C(=O)O)c1-c1cc(OC(F)(F)F)cc2[nH]ccc12` [compound 48]: the pKd was greater than 4.70.

The compound `CCC(C)c1c(-c2cccc3[nH]ccc23)[nH]c(C(=O)O)c1-c1cccc2[nH]ccc12` (stereo not drawn) [compound 73] showed a pKd greater than 4.70.

As for `CC(C)c1c(-c2cccc3[nH]ccc23)c(C(=O)O)n2c1-c1cc(F)cc3ccn(c13)CC2` [compound 270], the pKd was greater than 4.70.

Consider `CC(C)c1c(-c2cc(F)cc3[nH]ccc23)[nH]c(C(=O)O)c1-c1ccnc2[nH]c(-c3cccc(Cl)c3)cc12` [compound 253], for which the pKd is greater than 4.70.

On to `CC(C)c1c(-c2cc(F)cc3[nH]ccc23)[nH]c(C(=O)O)c1-c1ccnc2[nH]c(C3=CCN(S(C)(=O)=O)CC3)cc12` [compound 256], for which the negative-log Kd (pKd) was greater than 4.70.

On to `Cc1cc2c(-c3c(C(=O)O)[nH]c(-c4cc(F)cc5[nH]ccc45)c3C(C)C)ccnc2[nH]1` [compound 207], for which the pKd is greater than 4.70.

Turning to `CC(C)c1c(-c2cc(F)cc3[nH]ccc23)[nH]c(C(=O)O)c1-c1cccc2c1ccn2CS(N)(=O)=O` [compound 263], the pKd was greater than 4.70.

In turn, `COc1ccc(-c2c(C(=O)O)[nH]c(-c3cc(F)cc4[nH]ccc34)c2C(C)C)c(C)c1` [compound 59] gave a pKd greater than 4.70.

For the compound `CCc1c(-c2cccc3[nH]ccc23)[nH]c(C(=O)O)c1Cc1ccccc1` [compound 79], the pKd was 4.30 to 4.70.

Compound `CC(C)c1c(-c2cc(F)cc3[nH]ccc23)[nH]c(C(=O)O)c1-c1cc(C(F)(F)F)cc2[nH]ccc12` [compound 43] had a pKd greater than 4.70.

In the case of `CC(C)c1c(-c2cc(F)cc3[nH]ccc23)[nH]c(C(=O)O)c1-c1cc(OC2CCC2)cc2[nH]ccc12` [compound 235], the pKd was greater than 4.70.

As for `O=C(O)c1ccc(-c2ccccc2)[nH]1` [compound 144], the negative logarithm of the Kd (pKd) is less than 4.00.

`CCOC(=O)c1[nH]c(-c2c(OC)cccc2OC)c(CC)c1-c1ccc(OC)cc1Cl` [compound 164] gave a pKd of less than 4.00.

In turn, `CC(C)c1c(-c2cc(F)cc3cc[nH]c23)[nH]c(C(=O)O)c1-c1c(Cl)ccc2[nH]ccc12` [compound 185] had a pKd greater than 4.70.

`CC(C)c1c(-c2cc(F)cc3[nH]ccc23)[nH]c(C(=O)O)c1-c1cc(OCC(=O)O)ccc1Cl` [compound 60]: the pKd is greater than 4.70.

Turning to `CC(C)c1c(-c2cc(O)cc3[nH]ccc23)[nH]c(C(=O)O)c1-c1c(Cl)ccc2[nH]ccc12` [compound 12], the pKd was greater than 4.70.

The compound `COc1ccccc1-c1ccc(C(=O)O)[nH]1` [compound 142] gave a pKd of less than 4.00.

`O=C(O)c1ccc(-c2cccc(OCC3CC3)c2)[nH]1` [compound 131] showed a pKd of less than 4.00.

`CCC(C)c1c(-c2cc(F)cc3[nH]ccc23)[nH]c(C(=O)O)c1-c1cc(OC)cc2[nH]c(CO)cc12` (stereo not drawn) [compound 195]: the negative-log Kd (pKd) was greater than 4.70.

In turn, `CC(C)c1c(-c2cc(F)cc3[nH]ccc23)[nH]c(C(=O)O)c1-c1cc(F)cc2[nH]ccc12` [compound 36] showed a negative-log Kd (pKd) greater than 4.70.

`Cc1cc(-c2cccc3c2ccn3C)[nH]c1C(=O)O` [compound 117] gave a negative-log Kd (pKd) of less than 4.00.

`CC(C)c1c(-c2cc(F)cc3[nH]ccc23)[nH]c(C(=O)O)c1-c1c(Cl)ccc2[nH]ccc12` [compound 14]: the pKd is greater than 4.70.

The compound `Cn1ccc2c(-c3[nH]c(C(=O)O)c4c3CCCC4)cccc21` [compound 110] showed a pKd of less than 4.00.

The compound `CC(C)c1c(-c2cc(F)cc3[nH]ccc23)[nH]c(C(=O)O)c1-c1ccnc2[nH]c(-c3nccs3)cc12` [compound 233] had a pKd greater than 4.70.

As for `CC(C)c1c(-c2cc(F)cc3[nH]ccc23)[nH]c(C(=O)O)c1-c1ccnc2[nH]c(C3=CCN(S(=O)(=O)N(C)C)CC3)cc12` [compound 257], the pKd was greater than 4.70.

As for `O=C(O)c1ccc(-c2cccc3c2ccn3C2CC2)[nH]1` [compound 119], the pKd is less than 4.00.

In turn, `Cc1c(-c2cccc3[nH]ccc23)[nH]c(C(=O)O)c1-c1ccccc1Cl` [compound 93] gave a negative-log Kd (pKd) of 4.00 to 4.30.

For the compound `O=C(O)c1ccc(-c2ccc(Cl)cc2)[nH]1` [compound 143], the negative-log Kd (pKd) was less than 4.00.

As for `CC(C)c1c(-c2cc(F)cc3[nH]ccc23)[nH]c(C(=O)O)c1-c1ccnc2[nH]c(-c3ccccc3)cc12` [compound 251], the negative-log Kd (pKd) was greater than 4.70.

`CC(C)c1c(-c2ccnc3[nH]ccc23)[nH]c(C(=O)O)c1-c1c(Cl)ccc2[nH]ccc12` [compound 75] gave a negative logarithm of the Kd (pKd) greater than 4.70.
